# Results taken from publication PMC5656653, “Evaluation of Ga-DOTA-(D-Asp)n as bone imaging agents: D-aspartic acid peptides as carriers to bone” (Scientific Reports, 2017).
# Like-named read-outs stand apart in the source and are kept apart here. Where a SMILES comes first, the peptide text is derived from it. [ ]: non-standard residue; d: D form. The star is where a group is joined. DOTA = O=C(O)CN1CCN(CC(=O)O)CCN(CC(=O)*)CCN(CC(=O)O)CC1
# Experiments:
# [1] = Biodistribution experiments in normal mice after i.v. injection; assay type: in vivo; conditions: i.v.; for tissue uptake dose at 10 min / tissue uptake dose at 1 h / tissue uptake dose at 3 h: male, ddY, mouse, in vivo, iv, total radioactivity; for tissue uptake dose at 10 min / tissue uptake dose at 1 h / tissue uptake dose at 3 h / F/B ratio (Femur:blood ratio): mice, mean (SD)
# Outline: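 Male ddY mice (6 weeks, 27–32 g) received tracer i.v. (37–740 kBq/100 μL); 4–5 per group sacrificed at 10, 60 and 180 min. Weighed tissues and whole left femur (bone) gamma-counted with background and decay correction.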
# [2] = Urine analyses by RP-HPLC after i.v. injection; assay type: in vivo; conditions: mice, urine from bladder at 1 h post-injection
# Protocol: ^67Ga-DOTA-(L-Asp)14 was prepared according to a method described previously. ^67Ga-DOTA-(L-Asp)14 or ^67Ga-DOTA-(D-Asp)14 solution (370 kBq / 200 μL) was intravenously injected to 6-week-old male ddY mice. At 1 h post-injection, mice were sacrificed and their […] were taken from the bladders. After ultrafiltration (Microcon-30, Merck KGaA), the filtrate samples were analyzed by RP-HPLC at a flow rate of 1 mL/min with a gradient mobile phase from water containing 0.1% TFA to 20% methanol in water containing 0.1% TFA for 20 min.
smiles,measurement,setting,value
"O=C(O)C[C@@H](NC(=O)[C@@H](CC(=O)O)NC(=O)[C@@H](CC(=O)O)NC(=O)[C@@H](CC(=O)O)NC(=O)[C@@H](CC(=O)O)NC(=O)[C@@H](CC(=O)O)NC(=O)[C@@H](CC(=O)O)NC(=O)[C@@H](CC(=O)O)NC(=O)[C@@H](CC(=O)O)NC(=O)[C@@H](CC(=O)O)NC(=O)[C@@H](CC(=O)O)NC(=O)[C@@H](CC(=O)O)NC(=O)[C@@H](CC(=O)O)NC(=O)[C@@H](CC(=O)O)NC(=O)CN1CCN(CC(=O)O)CCN(CC(=O)O)CCN(CC(=O)O)CC1)C(=O)O [^67Ga-DOTA-(D-Asp)14, metal not drawn] ({DOTA}-[dD][dD][dD][dD][dD][dD][dD][dD][dD][dD][dD][dD][dD][dD]-OH)",tissue uptake dose at 10 min,"[1]; 10 min after injection, footnote b, read-out: Biodistribution of radioactivity, Stomach",0.28 %ID
same,tissue uptake dose at 10 min,"[1]; 10 min after injection, read-out: Biodistribution of radioactivity, Blood",2.46 %ID
same,tissue uptake dose at 10 min,"[1]; 10 min after injection, read-out: Biodistribution of radioactivity, Bone (Femur)",11.9 %ID
same,tissue uptake dose at 10 min,"[1]; 10 min after injection, read-out: Biodistribution of radioactivity, Brain",0.06 %ID
same,tissue uptake dose at 10 min,"[1]; 10 min after injection, read-out: Biodistribution of radioactivity, Heart",0.94 %ID
same,tissue uptake dose at 10 min,"[1]; 10 min after injection, read-out: Biodistribution of radioactivity, Kidney",8.15 %ID
same,tissue uptake dose at 10 min,"[1]; 10 min after injection, read-out: Biodistribution of radioactivity, Large-intestine",0.4 %ID
same,tissue uptake dose at 10 min,"[1]; 10 min after injection, read-out: Biodistribution of radioactivity, Liver",0.51 %ID
same,tissue uptake dose at 10 min,"[1]; 10 min after injection, read-out: Biodistribution of radioactivity, Lung",1.75 %ID
same,tissue uptake dose at 10 min,"[1]; 10 min after injection, read-out: Biodistribution of radioactivity, Muscle",0.77 %ID
same,tissue uptake dose at 10 min,"[1]; 10 min after injection, read-out: Biodistribution of radioactivity, Pancreas",0.88 %ID
same,tissue uptake dose at 10 min,"[1]; 10 min after injection, read-out: Biodistribution of radioactivity, Small-intestine",0.55 %ID
same,tissue uptake dose at 10 min,"[1]; 10 min after injection, read-out: Biodistribution of radioactivity, Spleen",0.48 %ID
same,tissue uptake dose at 1 h,"[1]; 60 min after injection, footnote b, read-out: Biodistribution of radioactivity, Stomach",0.07 %ID
same,tissue uptake dose at 1 h,"[1]; 60 min after injection, read-out: Biodistribution of radioactivity, Blood",0.09 %ID
same,tissue uptake dose at 1 h,"[1]; 60 min after injection, read-out: Biodistribution of radioactivity, Bone (Femur)",13 %ID
same,tissue uptake dose at 1 h,"[1]; 60 min after injection, read-out: Biodistribution of radioactivity, Brain",0.01 %ID
same,tissue uptake dose at 1 h,"[1]; 60 min after injection, read-out: Biodistribution of radioactivity, Heart",0.18 %ID
same,tissue uptake dose at 1 h,"[1]; 60 min after injection, read-out: Biodistribution of radioactivity, Kidney",1.21 %ID
same,tissue uptake dose at 1 h,"[1]; 60 min after injection, read-out: Biodistribution of radioactivity, Large-intestine",0.1 %ID
same,tissue uptake dose at 1 h,"[1]; 60 min after injection, read-out: Biodistribution of radioactivity, Liver",0.15 %ID
same,tissue uptake dose at 1 h,"[1]; 60 min after injection, read-out: Biodistribution of radioactivity, Lung",0.28 %ID
same,tissue uptake dose at 1 h,"[1]; 60 min after injection, read-out: Biodistribution of radioactivity, Muscle",0.16 %ID
same,tissue uptake dose at 1 h,"[1]; 60 min after injection, read-out: Biodistribution of radioactivity, Pancreas",0.27 %ID
same,tissue uptake dose at 1 h,"[1]; 60 min after injection, read-out: Biodistribution of radioactivity, Small-intestine",0.18 %ID
same,tissue uptake dose at 1 h,"[1]; 60 min after injection, read-out: Biodistribution of radioactivity, Spleen",0.12 %ID
same,tissue uptake dose at 3 h,"[1]; 180 min after injection, footnote b, read-out: Biodistribution of radioactivity, Stomach",0.06 %ID
same,tissue uptake dose at 3 h,"[1]; 180 min after injection, read-out: Biodistribution of radioactivity, Blood",0.03 %ID
same,tissue uptake dose at 3 h,"[1]; 180 min after injection, read-out: Biodistribution of radioactivity, Bone (Femur)",14.8 %ID
same,tissue uptake dose at 3 h,"[1]; 180 min after injection, read-out: Biodistribution of radioactivity, Brain",0.01 %ID
same,tissue uptake dose at 3 h,"[1]; 180 min after injection, read-out: Biodistribution of radioactivity, Heart",0.11 %ID
same,tissue uptake dose at 3 h,"[1]; 180 min after injection, read-out: Biodistribution of radioactivity, Kidney",0.54 %ID
same,tissue uptake dose at 3 h,"[1]; 180 min after injection, read-out: Biodistribution of radioactivity, Large-intestine",0.2 %ID
same,tissue uptake dose at 3 h,"[1]; 180 min after injection, read-out: Biodistribution of radioactivity, Liver",0.05 %ID
same,tissue uptake dose at 3 h,"[1]; 180 min after injection, read-out: Biodistribution of radioactivity, Lung",0.03 %ID
same,tissue uptake dose at 3 h,"[1]; 180 min after injection, read-out: Biodistribution of radioactivity, Muscle",0.16 %ID
same,tissue uptake dose at 3 h,"[1]; 180 min after injection, read-out: Biodistribution of radioactivity, Pancreas",0.14 %ID
same,tissue uptake dose at 3 h,"[1]; 180 min after injection, read-out: Biodistribution of radioactivity, Small-intestine",0.12 %ID
same,tissue uptake dose at 3 h,"[1]; 180 min after injection, read-out: Biodistribution of radioactivity, Spleen",0.12 %ID
same,F/B ratio (Femur:blood ratio),[1]; 10 min after injection,4.90 (0.70)
same,F/B ratio (Femur:blood ratio),[1]; 60 min after injection,180.99 (91.94)
same,F/B ratio (Femur:blood ratio),[1]; 180 min after injection,526.37 (130.49)
same,Accumulation of radioactivity in bone (in words),[1]; normal mice,high accumulation and retention of radioactivity in bone
same,Radioactivity in the kidneys (in words),[1]; normal mice,extremely low accumulation of radioactivity in the kidneys
same,Ratio of the intact complex in urine,[2],85.8 ± 17.4%
